This is an account of results in patent publication US6706716B2, “Compounds specific for the human α1d adrenergic receptor and uses thereof” (Synaptic Pharmaceutical Corporation, priority 1998, dated 2004).

For test [1], the target named is T1, human α1d adrenergic receptor (Homo sapiens, UniProt P25100).
T1 construct: The entire coding region. of α1d (1719 bp); expressed in transfected cells
T1 sequence (P25100 1-572): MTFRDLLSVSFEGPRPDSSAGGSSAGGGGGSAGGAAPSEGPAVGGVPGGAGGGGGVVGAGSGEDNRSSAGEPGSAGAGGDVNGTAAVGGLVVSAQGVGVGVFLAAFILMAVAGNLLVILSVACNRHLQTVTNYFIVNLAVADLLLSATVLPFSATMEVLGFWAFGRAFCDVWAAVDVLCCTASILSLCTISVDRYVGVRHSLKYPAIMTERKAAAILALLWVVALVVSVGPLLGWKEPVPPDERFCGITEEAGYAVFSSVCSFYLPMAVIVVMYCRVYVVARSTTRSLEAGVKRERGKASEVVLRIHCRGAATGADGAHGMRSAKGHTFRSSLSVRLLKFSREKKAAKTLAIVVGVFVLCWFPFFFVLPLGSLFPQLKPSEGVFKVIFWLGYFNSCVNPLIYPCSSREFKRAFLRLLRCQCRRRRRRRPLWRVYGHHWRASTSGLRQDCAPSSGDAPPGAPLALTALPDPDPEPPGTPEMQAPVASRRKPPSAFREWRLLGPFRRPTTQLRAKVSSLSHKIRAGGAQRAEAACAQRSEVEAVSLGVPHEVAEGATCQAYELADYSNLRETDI
As to the kind of experiment: Radioligand binding ([3H]prazosin) at cloned human α1d adrenergic receptor. The conditions noted are these: LM(tk-) cell membranes, read-out: Binding affinities (pKi) α1d (converted). As for the experimental part:
(§1) First, conditions were determined which allowed measurement of the specific binding of a compound known to bind to the receptor. Then, the binding of the known compound to the receptor in membrane preparations was evaluated in the presence of several different concentrations of the test compound.
(§2) These cell lines were prepared by transfecting the cloned cDNA or cloned genomic DNA or constructs containing both genomic DNA and cDNA encoding the human receptors as described below.
α1d Human Adrenergic Receptor: The entire coding region. of α1d (1719 bp), including 150 base pairs of 5′ untranslated sequence (5′ UT) and 300 bp of 3′ untranslated sequence (3′ UT), was cloned into the BamHI and ClaI sites of the polylinker-modified eukaryotic expression vector pCEXV-3, called EXJ.HR. The construct involved the ligation of partial overlapping human lymphocyte genomic and hippocampal cDNA clones: 5′ sequence were contained on a 1.2 kb SmaI-XhoI genomic fragment (the vector-derived BamHI site was used for subcloning instead of the internal insert-derived SmaI site) and 3′ sequences were contained on a 1.3 kb XhoI-ClaI cDNA fragment (the ClaI site was from the vector polylinker). Stable cell lines were obtained by cotransfection with the plasmid α1A/EXJ (expression vector containing the α1a receptor gene (old nomenclature)) and the plasmid pGCcos3neo (plasmid containing the aminoglycoside transferase gene) into LM(tk-) cells using the calcium phosphate technique. The cells were grown, in a controlled environment (37° C., 5% CO2), as monolayers in Dulbecco's modified Eagle's Medium (GIBCO, Grand Island, N.Y.) containing 25 mM glucose and supplemented with 10% bovine calf serum, 100 units/ml penicillin g, and 100 μg/ml streptomycin sulfate. Stable clones were then selected for resistance to the antibiotic G-418 (1 mg/ml), and membranes were harvested and assayed for their ability to bind [^3H]prazosin as described below (see Radioligand Binding assays).
The cell line expressing the human α1d receptor used herein was designated L-α1A (old nomenclature) and was deposited with the American Type Culture Collection, 12301 Parklawn Drive, Rockville, Md. 20852, U.S.A. under the provisions of the Budapest Treaty for the International Recognition of the Deposit of Microorganisms for the Purposes of Patent Procedure. The cell line expressing the human α1d receptor, was accorded ATCC Accession No. CRL 11138, and was deposited on Sep. 25, 1992.
(§3) Radioligand Binding Assays for α1 Human Adrenergic Receptors: Transfected cells from culture flasks were scraped into 5 ml of 5 mM Tris-HCl, 5 mM EDTA, pH 7.5, and lysed by sonication. The cell lysates were centrifuged at 1000 rpm for 5 min at 4° C., and the supernatant was centrifuged at 30,000×g for 20 min at 4° C. The pellet was suspended in 50 mM Tris-HCl, 1 mM MgCl2, and 0.1% ascorbic acid at pH 7.5. Binding of the α1, antagonist [^3H]prazosin (0.5 nM, specific activity 76.2 Ci/mmol) to membrane preparations of LM(tk-) cells was done in a final volume of 0.25 ml and incubated at 37° C. for 1 hour. Nonspecific binding was determined in the presence of 10 μM phentolamine. The reaction was stopped by filtration through GF/B filters using a cell harvester.

Test [2] addresses T2, human α1b adrenergic receptor (Homo sapiens, UniProt P35368).
T2 construct: The entire coding region of α1b (1563 bp); expressed in transfected cells
T2 sequence (P35368 1-520): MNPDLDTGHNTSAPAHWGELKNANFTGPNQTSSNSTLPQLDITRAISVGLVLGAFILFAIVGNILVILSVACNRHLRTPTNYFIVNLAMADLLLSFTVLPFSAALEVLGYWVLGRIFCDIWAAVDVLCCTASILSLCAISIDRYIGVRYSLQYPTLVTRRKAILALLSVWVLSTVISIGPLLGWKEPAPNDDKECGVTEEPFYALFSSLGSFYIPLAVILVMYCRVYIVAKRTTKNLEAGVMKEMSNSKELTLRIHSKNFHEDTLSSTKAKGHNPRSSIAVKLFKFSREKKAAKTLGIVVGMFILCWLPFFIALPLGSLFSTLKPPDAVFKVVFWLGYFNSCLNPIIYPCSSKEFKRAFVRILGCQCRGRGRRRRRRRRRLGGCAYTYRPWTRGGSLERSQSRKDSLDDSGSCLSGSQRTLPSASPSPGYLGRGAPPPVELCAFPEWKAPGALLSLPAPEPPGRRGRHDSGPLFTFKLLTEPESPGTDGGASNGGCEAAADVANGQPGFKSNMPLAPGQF
As to the kind of experiment: Radioligand binding ([3H]prazosin) at cloned human α1b adrenergic receptor. The conditions noted are these: LM(tk-) cell membranes, read-out: Binding affinities (pKi) α1b (converted). On the procedure:
as §1, §2
α1b Human Adrenergic Receptor: The entire coding region of α1b (1563 bp), including 200 base pairs of 5′ untranslated sequence (5′ UT) and 600 bp of 3′ untranslated sequence (3′ UT), was cloned into the EcoRI site of pCEXV-3 eukaryotic expression vector. The construct involved ligating the full-length EcoRI brainstem cDNA fragment from λ ZapII into the expression vector. Stable cell lines were selected as described above. Membranes were harvested and assayed for their ability to bind [^3H]prazosin as described below (see Radioligand Binding assays). The cell line used herein was designated L-α1B and was deposited with the American Type Culture Collection, 12301 Parklawn Drive, Rockville, Md. 20852, U.S.A. under the provisions of the Budapest Treaty for the International Recognition of the Deposit of Microorganisms for the Purposes of Patent Procedure. The cell line L-α1B was accorded ATCC Accession No. CR 11139, on Sep. 29, 1992.
as §3

As for `O=C1CC2(CCCC2)CC(=O)N1CCN1CCN(c2ccc(F)c(F)c2)CC1` [Compound 15, 8-{2-[4-(3,4-Difluorophenyl)piperazin-1-yl]ethyl}-8-azaspiro[4.5]decane-7,9-dione], the Ki in test [1] was 7.94 nM; in test [2] it was 1580 nM.
In the case of `O=C1CC2(CCCC2)CC(=O)N1CCN1CCN(c2cc(F)ccc2F)CC1` [Compound 6, 8-{2-[4-(2,5-Difluorophenyl)piperazin-1-yl]ethyl}-8-azaspiro[4.5]decane-7,9-dione], the Ki in test [1] is 1 nM; in test [2] it was 50.1 nM.
As to `O=C1CC2(CCCC2)CC(=O)N1CCN1CCN(c2cc(F)c(F)cc2F)CC1` [Compound 7, 8-{2-[4-(2,4,5-Trifluorophenyl)piperazin-1-yl]ethyl}-8-azaspiro[4.5]decane-7,9-dione], the Ki in test [1] was 2 nM; in test [2], 398 nM.
`O=C1CC2(CCCC2)CC(=O)N1CCN1CCN(c2c(F)cccc2F)CC1` [Compound 14, 8-{2-[4-(2,6-Difluorophenyl)piperazino]ethyl}-8-azaspiro[4.5]decane-7,9-dione]: the results for the Ki in test [1] and in test [2] were 3.98 nM and 126 nM, respectively.
Take `COc1ccc(F)cc1C1CCN(CCN2C(=O)CC3(CCCC3)CC2=O)CC1` [Compound 12, 8-{2-[4-(5-Fluoro-2-methoxyphenyl)piperidin-1-yl]ethyl}-8-azaspiro[4.5]decane-7,9-dione]: the results for the Ki in test [1] and in test [2] were 1 nM and 63.1 nM, respectively.
The like results for `C[C@H](CN1CCN(c2cc(F)ccc2F)CC1)N1C(=O)CC2(CCCC2)CC1=O` [Compound 8, 8-{(1R)-2-[4-(2,5-Difluorophenyl)piperazin-1-yl]-1-methylethyl}-8-azaspiro[4.5]decane-7,9-dione] were, in that order, 0.794 nM and 63.1 nM.
Consider `Cc1ccc(Cl)cc1N1CCN(CCN2C(=O)CC3(CCCC3)CC2=O)CC1` [Compound 13, 8-{2-[4-(5-Chloro-2-methylphenyl)piperazino]ethyl}-8-azaspiro [4.5]decane-7,9-dione], for which the Ki was 39.8 nM in test [1] and 3160 nM in test [2].
Consider `C[C@@H](CN1CCN(c2cc(F)ccc2F)CC1)N1C(=O)CC2(CCCC2)CC1=O` [Compound 10, 8-{(1S)-2-[4-(2,5-Difluorophenyl)piperazin-1-yl]-1-methylethyl}-8-azaspiro[4.5]decane-7,9-dione], for which the Ki in test [1] was 50.1 nM; in test [2], 3980 nM.
